Experimental data published in patent publication US10370401B2, “Substituted nucleosides, nucleotides and analogs thereof” (Alios BioPharma, Inc., priority 2013, dated 2019).
Like-named read-outs stand apart in the source and are kept apart here.

Columns and labels:
Human rhinovirus 1B = test: Picornavirus assay (CPE, CellTiter-Glo, HeLa-OHIO cells); assay type: cell-based; settings: Rhinovirus A, 96 h
subgenomic HCV replicon = test: HCV replicon assay (Huh-7, luciferase reporter); assay type: cell-based; settings: Hepatitis C virus
[1] = target: human rhinovirus 16 polymerase (HRV16pol) (Human rhinovirus 16, UniProt Q82122); test: biochemical; settings: HRV16pol, 2.5 h at 30° C., mean of several independent experiments; read-out: IC50
Chain of human rhinovirus 16 polymerase (HRV16pol) (Q82122 1694-2153 limits assumed): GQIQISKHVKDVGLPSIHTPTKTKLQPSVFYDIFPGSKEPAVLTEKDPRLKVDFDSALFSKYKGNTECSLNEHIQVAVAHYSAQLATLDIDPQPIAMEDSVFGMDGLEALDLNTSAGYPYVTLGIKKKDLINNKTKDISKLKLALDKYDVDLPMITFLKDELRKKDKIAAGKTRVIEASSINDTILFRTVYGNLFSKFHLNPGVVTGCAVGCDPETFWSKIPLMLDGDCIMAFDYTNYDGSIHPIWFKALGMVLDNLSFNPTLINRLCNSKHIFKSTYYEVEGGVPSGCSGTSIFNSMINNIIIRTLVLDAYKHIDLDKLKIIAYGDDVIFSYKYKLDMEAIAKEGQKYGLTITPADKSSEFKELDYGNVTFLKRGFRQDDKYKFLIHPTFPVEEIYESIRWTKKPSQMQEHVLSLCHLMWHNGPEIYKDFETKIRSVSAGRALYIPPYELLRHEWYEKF

NS5B570-Con1 (Delta-21) = NS5B570-Con1 (Delta-21) (Hepatitis C virus genotype 1b, UniProt Q9WMX2); test: biochemical; set-up: species or system HCV
[2] = Human rhinovirus 1B, HeLa-OHIO cells, 4 d at 33° C., read-out: EC50
[3] = Huh-7 HCV replicon cells, luciferase, 72 hours, read-out: EC50

SMILES: C[C@]1(CO)O[C@@H](n2ccc(N)nc2=O)C(F)(F)[C@@H]1O [compound 300]
- EC50 (Human rhinovirus 1B; [2]): < 1 µM
- EC50 (subgenomic HCV replicon; [3]): 10 to 100 µM

SMILES: CC(C)(CO)C(=O)SCCOP(=O)(OCCSC(=O)C(C)(C)CO)OC[C@@]1(CF)O[C@@H](n2ccc(=O)[nH]c2=O)[C@](C)(O)[C@@H]1O [Compound 288]
- EC50 (Human rhinovirus 1B): 10 to 100 µM
- EC50 (subgenomic HCV replicon; Huh-7, 72 h): 10 to 100 µM

SMILES: CC(C)OC(=O)OCOP(=O)(OCOC(=O)OC(C)C)OC[C@@]1(CF)O[C@@H](n2ccc(=O)n(COC(=O)C(N)C(C)C)c2=O)[C@](C)(O)[C@@H]1O (stereo partly drawn) [Compound 52]
- EC50 (Human rhinovirus 1B): < 1 µM
- EC50 (subgenomic HCV replicon; Huh-7, 72 h): < 1 µM

SMILES: CCOc1nc(N)nc2c1ncn2[C@@H]1O[C@](CF)(COP(=O)(N[C@@H](C)C(=O)OC2CCCCC2)Oc2ccccc2)[C@@H](O)[C@@]1(C)O (stereo partly drawn) [Compound 36]
- EC50 (Human rhinovirus 1B): < 1 µM
- EC50 (subgenomic HCV replicon; Huh-7, 72 h): < 1 µM

SMILES: C#C[C@@]1(O)[C@H](O)[C@@](CF)(COP(=O)(OCOC(=O)OC(C)C)OCOC(=O)OC(C)C)O[C@H]1n1cnc2c(N)ncnc21 [Compound 63]
- EC50 (Human rhinovirus 1B; [2]): < 1 µM
- EC50 (subgenomic HCV replicon; [3]): 1 to 10 µM

SMILES: CC(C)C(=O)OCOP(=O)(OCOC(=O)C(C)C)OC[C@@]1(CF)O[C@@H](n2ccc(=O)[nH]c2=O)[C@](C)(O)[C@@H]1O [Compound 70]
- EC50 (Human rhinovirus 1B; [2]): 1 to 10 µM
- EC50 (subgenomic HCV replicon; [3]): 1 to 10 µM

SMILES: CC(C)OC(=O)OCOP(=O)(OCOC(=O)OC(C)C)OC[C@@]1(CF)O[C@@H](n2ccc(=O)[nH]c2=O)[C@](C)(O)[C@@H]1OC(=O)CN [Compound 282]
- EC50 (Human rhinovirus 1B): < 1 µM
- EC50 (subgenomic HCV replicon; Huh-7, 72 h): < 1 µM

SMILES: CCOc1nc(N)nc2c1ncn2[C@@H]1O[C@](F)(COP(=O)(N[C@@H](C)C(=O)OC(C)C)Oc2ccccc2)[C@@H](F)[C@@]1(C)O (stereo partly drawn) [Compound 22]
- EC50 (Human rhinovirus 1B): 1 to 10 µM
- EC50 (subgenomic HCV replicon; Huh-7, 72 h): 1 to 10 µM

SMILES: CC(C)OC(=O)[C@H](C)NP(=O)(OCCSC(=O)C(C)(C)CO)OC[C@@]1(CF)O[C@@H](n2ccc(=O)[nH]c2=O)[C@](C)(O)[C@@H]1O (stereo partly drawn) [Compound 283]
- EC50 (Human rhinovirus 1B; [2]): 10 to 100 µM
- EC50 (subgenomic HCV replicon; [3]): 1 to 10 µM

SMILES: CC(C)OC(=O)OCOP(=O)(N[C@@H](C)C(=O)OC(C)C)OC[C@@]1(CF)O[C@@H](n2ccc(=O)[nH]c2=O)[C@](C)(O)[C@@H]1O (stereo partly drawn) [Compound 286]
- EC50 (Human rhinovirus 1B; [2]): 1 to 10 µM
- EC50 (subgenomic HCV replicon; [3]): < 1 µM

SMILES: C#C[C@@]1(O)[C@H](O)[C@@](CCl)(COP(=O)(OCOC(=O)OC(C)C)OCOC(=O)OC(C)C)O[C@H]1n1cnc2c(N)ncnc21 [Compound 64]
- EC50 (Human rhinovirus 1B; [2]): 1 to 10 µM
- EC50 (subgenomic HCV replicon; [3]): 10 to 100 µM

SMILES: CC(=O)OCOP(=O)(OCOC(C)=O)OC[C@@]1(CF)O[C@@H](n2ccc(=O)[nH]c2=O)[C@](C)(O)[C@@H]1O [Compound 67]
- EC50 (subgenomic HCV replicon; [3]): 10 to 100 µM

SMILES: C[C@]1(COP(=O)(O)OP(=O)(O)OP(=O)(O)O)O[C@@H](n2ccc(N)nc2=O)C(F)(F)[C@@H]1O [compound 277]
- IC50 [1]: < 10 µM
- IC50 (NS5B570-Con1 (Delta-21)): 10 to 100 µM

SMILES: C#C[C@@]1(O)[C@H](O)[C@@H](COP(=O)(O)OP(=O)(O)OP(=O)(O)O)O[C@H]1n1ccc2c(N)ncnc21 [compound 205]
- IC50 [1]: < 1 µM
- IC50 (NS5B570-Con1 (Delta-21)): < 1 µM

SMILES: O=c1ccn([C@@H]2O[C@](CF)(COP(=O)(O)OP(=O)(O)OP(=O)(O)O)[C@@H](O)[C@]2(O)CF)c(=O)[nH]1 [compound 256]
- IC50 [1]: < 10 µM
- IC50 (NS5B570-Con1 (Delta-21)): 10 to 100 µM

SMILES: C#C[C@@]1(O)[C@H](O)[C@@](CCl)(COP(=O)(O)OP(=O)(O)OP(=O)(O)O)O[C@H]1n1cnc2c(N)ncnc21 [compound 245]
- IC50 [1]: < 1 µM
- IC50 (NS5B570-Con1 (Delta-21)): 10 to 100 µM

SMILES: O=c1ccn([C@@H]2O[C@](CCl)(COP(=O)(O)OP(=O)(O)OP(=O)(O)O)[C@@H](O)C2(F)F)c(=O)[nH]1 [compound 73]
- IC50 [1]: < 10 µM
- IC50 (NS5B570-Con1 (Delta-21)): 10 to 100 µM

SMILES: C[C@@]1(O)[C@H](O)[C@@](CN=[N+]=[N-])(COP(=O)(O)OP(=O)(O)OP(=O)(O)O)O[C@H]1n1ccc(=O)[nH]c1=O [compound 249]
- IC50 [1]: < 100 µM
- IC50 (NS5B570-Con1 (Delta-21)): 10 to 100 µM

SMILES: C#C[C@@]1(O)[C@H](O)[C@@](CF)(COP(=O)(O)OP(=O)(O)OP(=O)(O)O)O[C@H]1n1cnc2c(N)ncnc21 [compound 93]
- IC50 [1]: < 1 µM
- IC50 (NS5B570-Con1 (Delta-21)): 10 to 100 µM

SMILES: Nc1ccn([C@@H]2O[C@](CF)(COP(=O)(O)OP(=O)(O)OP(=O)(O)O)[C@@H](O)C2(F)F)c(=O)n1 [compound 82]
- IC50 [1]: < 1 µM
- IC50 (NS5B570-Con1 (Delta-21)): 10 to 100 µM
